Experimental data published in ChEMBL document CHEMBL1201862, “PubChem BioAssay data set” (2004).
The source made the active and inactive calls.

Legend:
[1] = molecular target: Voltage-gated inwardly rectifying potassium channel KCNH2 (Homo sapiens, UniProt Q12809); settings: Potency;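 further: confirmatory quantitative high-throughput screen measuring inhibition of hERG channel activity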
[2] = Trypanosoma cruzi growth suppression in host cells – NIH3T3 host cells, beta-gal luminescence, confirmation (AID 2044); type: functional, cell-based;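 further: intracellular parasites grown in NIH/3T3 mouse fibroblasts as host cells; luminescent beta-galactosidase reporter signal from transgenic T. cruzi replicating inside host cells; inhibitors lower the luminescence signal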
[3] = NIH3T3 cell viability loss – ATP luminescence, mouse fibroblasts, counter-screen, dose response (AID 2010); type: functional, cell-based;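 further: cells exposed to compound for about 90 hours before reading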
Beta-galactosidase = Beta-galactosidase (Escherichia coli, UniProt Q8VNN2); assay: PubChem AID 485352; type: functional
Chain of Beta-galactosidase (Q8VNN2 whole entry): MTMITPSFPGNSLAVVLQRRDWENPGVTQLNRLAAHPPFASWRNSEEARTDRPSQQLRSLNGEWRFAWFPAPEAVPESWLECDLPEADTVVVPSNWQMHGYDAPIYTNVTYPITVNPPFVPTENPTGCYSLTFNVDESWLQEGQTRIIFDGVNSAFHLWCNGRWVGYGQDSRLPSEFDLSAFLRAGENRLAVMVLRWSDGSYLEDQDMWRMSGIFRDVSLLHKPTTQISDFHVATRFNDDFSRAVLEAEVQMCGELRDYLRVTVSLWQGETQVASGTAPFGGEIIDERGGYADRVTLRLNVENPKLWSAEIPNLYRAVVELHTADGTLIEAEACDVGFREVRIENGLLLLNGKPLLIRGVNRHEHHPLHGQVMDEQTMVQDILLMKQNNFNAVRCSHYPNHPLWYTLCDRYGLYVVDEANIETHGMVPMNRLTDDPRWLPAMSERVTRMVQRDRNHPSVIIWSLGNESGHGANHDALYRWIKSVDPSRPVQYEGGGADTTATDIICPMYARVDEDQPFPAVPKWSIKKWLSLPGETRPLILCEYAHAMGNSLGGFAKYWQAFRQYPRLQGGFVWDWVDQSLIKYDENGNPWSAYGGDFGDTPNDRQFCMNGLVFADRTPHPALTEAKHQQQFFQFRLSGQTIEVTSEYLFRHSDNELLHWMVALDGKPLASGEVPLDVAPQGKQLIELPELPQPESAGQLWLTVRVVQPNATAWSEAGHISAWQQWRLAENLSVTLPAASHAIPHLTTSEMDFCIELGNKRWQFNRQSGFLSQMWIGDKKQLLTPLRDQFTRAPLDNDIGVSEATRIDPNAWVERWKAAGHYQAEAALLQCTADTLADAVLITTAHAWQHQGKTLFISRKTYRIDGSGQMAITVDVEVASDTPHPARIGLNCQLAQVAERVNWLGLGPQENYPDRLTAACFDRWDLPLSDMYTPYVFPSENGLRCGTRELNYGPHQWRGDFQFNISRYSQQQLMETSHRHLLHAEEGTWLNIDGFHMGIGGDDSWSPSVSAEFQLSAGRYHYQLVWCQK

[4] = molecular target: T1, Corticotropin-releasing factor receptor 2/Corticotropin-releasing factor-binding protein (Homo sapiens, UniProt P24387+Q13324); assay: activators of CRF receptor 2 with binding protein – uHTS hits, confirmation (AID 602473); type: functional; settings: read-out: EC50_Mean
T1 sequence (Q13324 whole entry): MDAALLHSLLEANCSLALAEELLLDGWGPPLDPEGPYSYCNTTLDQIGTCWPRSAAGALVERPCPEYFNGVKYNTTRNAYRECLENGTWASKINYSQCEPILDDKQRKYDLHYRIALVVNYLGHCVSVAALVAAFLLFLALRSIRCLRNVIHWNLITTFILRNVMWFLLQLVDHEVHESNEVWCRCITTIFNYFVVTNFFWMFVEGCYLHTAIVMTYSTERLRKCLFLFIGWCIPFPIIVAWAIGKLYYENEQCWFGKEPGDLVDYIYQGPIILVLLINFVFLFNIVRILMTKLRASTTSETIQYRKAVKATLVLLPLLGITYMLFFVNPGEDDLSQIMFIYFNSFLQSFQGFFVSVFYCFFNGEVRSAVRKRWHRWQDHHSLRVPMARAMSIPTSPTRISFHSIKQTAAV
T1 sequence (P24387 whole entry): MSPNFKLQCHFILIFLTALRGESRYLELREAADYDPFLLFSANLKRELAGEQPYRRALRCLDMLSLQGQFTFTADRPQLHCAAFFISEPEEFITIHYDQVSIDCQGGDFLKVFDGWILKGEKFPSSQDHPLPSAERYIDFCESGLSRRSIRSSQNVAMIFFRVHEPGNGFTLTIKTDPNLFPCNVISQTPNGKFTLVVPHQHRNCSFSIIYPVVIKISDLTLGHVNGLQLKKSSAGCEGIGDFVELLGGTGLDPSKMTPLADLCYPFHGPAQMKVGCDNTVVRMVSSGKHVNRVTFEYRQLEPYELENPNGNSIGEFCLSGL

[5] = molecular target: T2, Type-1 angiotensin II receptor (Homo sapiens, UniProt P30556); assay: antagonism of angiotensin II type 1 receptor – cell-based, uHTS hits, selectivity assay for APJ receptor antagonist project, dose response (AID 463214); type: functional;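 further: antagonist potency against angiotensin II stimulated AT1 response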
T2 sequence (P30556 whole entry): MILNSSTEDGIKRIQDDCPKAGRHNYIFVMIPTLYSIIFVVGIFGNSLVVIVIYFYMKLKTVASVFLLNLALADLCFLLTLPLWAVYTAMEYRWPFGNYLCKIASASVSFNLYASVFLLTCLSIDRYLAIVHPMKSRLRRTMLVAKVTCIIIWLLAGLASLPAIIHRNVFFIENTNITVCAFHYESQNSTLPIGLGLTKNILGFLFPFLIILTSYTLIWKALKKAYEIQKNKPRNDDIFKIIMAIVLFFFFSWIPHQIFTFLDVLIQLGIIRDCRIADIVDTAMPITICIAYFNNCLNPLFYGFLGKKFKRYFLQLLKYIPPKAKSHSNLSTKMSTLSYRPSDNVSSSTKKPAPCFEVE

[6] = Fluorescence-based cell-based high throughput dose response assay for inhibitors of the interaction of nucleotide-binding oligomerization domain containing 2 (NOD2) and the receptor-interacting serine-threonine kinase 2 (RIPK2).; type: functional; settings: Homo sapiens
INS1 = assay: INS-1E survival protection against cytokine death – cell-based, luminescence, retest, dose response (AID 449756); type: functional; settings: Rattus norvegicus;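 further: cell death triggered by IL-1 beta plus TNF-alpha plus IFN-gamma mixture; protective hits raise ATP signal compared with cytokine alone wells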
[7] = molecular target: T3, Microphthalmia-associated transcription factor (Homo sapiens, UniProt O75030); assay: reducers of TRPM1 reporter luminescence, concentration series – cell-based, SK-MEL-5, cherry-picked, set 3, MITF inhibitor project, dose response (AID 493073); type: functional;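 further: SK-MEL-5 melanoma cells with luciferase driven by the MITF target TRPM1 promoter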
T3 sequence (O75030 whole entry): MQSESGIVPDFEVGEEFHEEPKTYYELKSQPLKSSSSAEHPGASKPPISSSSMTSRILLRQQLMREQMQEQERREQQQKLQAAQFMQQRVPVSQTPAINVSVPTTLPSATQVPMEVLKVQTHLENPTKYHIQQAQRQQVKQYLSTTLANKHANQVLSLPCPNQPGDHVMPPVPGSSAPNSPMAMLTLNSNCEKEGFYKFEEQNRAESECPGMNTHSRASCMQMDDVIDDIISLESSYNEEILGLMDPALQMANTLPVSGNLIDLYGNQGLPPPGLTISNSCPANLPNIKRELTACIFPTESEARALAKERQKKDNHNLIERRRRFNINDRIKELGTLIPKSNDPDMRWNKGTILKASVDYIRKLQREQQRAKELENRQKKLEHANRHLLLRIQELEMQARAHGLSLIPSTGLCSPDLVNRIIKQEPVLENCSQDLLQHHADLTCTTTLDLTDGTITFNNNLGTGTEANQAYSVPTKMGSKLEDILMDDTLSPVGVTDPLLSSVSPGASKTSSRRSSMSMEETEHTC

[8] = Luminescence Cell-Based Dose Retest to Confirm Inhibitors of Cancer Stem Cells. [Related pubchem assays (depositor defined):AID2717, AID2721]; type: functional; settings: Homo sapiens
Beta Lactamase = Beta Lactamase (Pseudomonas aeruginosa, UniProt Q932Y6); assay: BLA reporter interference, concentration series – BLA reporter cells, FRET fluorescence, artefact control for TLR9-MyD88 binding inhibitor project, dose response (AID 588341); type: cell-based;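 further: cell based assay in CHO-K1 cells stably expressing beta-lactamase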
Chain of Beta Lactamase (Q932Y6 whole entry, the tested form may be a part): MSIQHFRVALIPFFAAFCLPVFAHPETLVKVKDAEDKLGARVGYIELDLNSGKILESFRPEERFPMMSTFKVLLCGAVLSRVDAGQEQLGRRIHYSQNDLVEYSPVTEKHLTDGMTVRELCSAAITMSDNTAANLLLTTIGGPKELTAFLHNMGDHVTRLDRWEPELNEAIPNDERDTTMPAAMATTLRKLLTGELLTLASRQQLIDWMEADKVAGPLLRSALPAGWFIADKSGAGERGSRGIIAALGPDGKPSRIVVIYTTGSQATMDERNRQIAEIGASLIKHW

CHO = CHO cell viability loss, potency – luminescence, cytotoxicity control for TLR9-MyD88 binding inhibitor project, dose response (AID 588339); type: functional, cell-based, hamster; settings: Cricetulus griseus;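 further: CHO cells stably coexpressing TLR9 and MyD88 fusions from primary screen; compound exposure lasted 48 hours before viability readout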
Vero [9] = assay: cells; type: functional, cell-based; settings: Chlorocebus sabaeus
Vero [10] = assay: cells; type: functional; settings: Chlorocebus sabaeus
[11] = restored growth of temperature-sensitive Burl-1 yeast – whole organism, S. cerevisiae, Burl-1 ts mutant, luminescence, counter-screen for SUMOylation pathway inhibitor project, dose response (AID 463199); type: functional
[12] = loss of viability in HepG2 cells – cell-based, CellTiter-Glo, cherry-picked, cytotoxicity control for Shn3 inhibitor project, dose response (AID 624134); type: functional
[13] = molecular target: T4, Short transient receptor potential channel 4 (Mus musculus, UniProt Q9QUQ5); assay: calcium entry via TRPC4 opening agents – cell-based, HEK293 TRPC4/mu-opioid, Fluo-4 calcium, dose response (AID 434937); type: functional
T4 sequence (Q9QUQ5 whole entry): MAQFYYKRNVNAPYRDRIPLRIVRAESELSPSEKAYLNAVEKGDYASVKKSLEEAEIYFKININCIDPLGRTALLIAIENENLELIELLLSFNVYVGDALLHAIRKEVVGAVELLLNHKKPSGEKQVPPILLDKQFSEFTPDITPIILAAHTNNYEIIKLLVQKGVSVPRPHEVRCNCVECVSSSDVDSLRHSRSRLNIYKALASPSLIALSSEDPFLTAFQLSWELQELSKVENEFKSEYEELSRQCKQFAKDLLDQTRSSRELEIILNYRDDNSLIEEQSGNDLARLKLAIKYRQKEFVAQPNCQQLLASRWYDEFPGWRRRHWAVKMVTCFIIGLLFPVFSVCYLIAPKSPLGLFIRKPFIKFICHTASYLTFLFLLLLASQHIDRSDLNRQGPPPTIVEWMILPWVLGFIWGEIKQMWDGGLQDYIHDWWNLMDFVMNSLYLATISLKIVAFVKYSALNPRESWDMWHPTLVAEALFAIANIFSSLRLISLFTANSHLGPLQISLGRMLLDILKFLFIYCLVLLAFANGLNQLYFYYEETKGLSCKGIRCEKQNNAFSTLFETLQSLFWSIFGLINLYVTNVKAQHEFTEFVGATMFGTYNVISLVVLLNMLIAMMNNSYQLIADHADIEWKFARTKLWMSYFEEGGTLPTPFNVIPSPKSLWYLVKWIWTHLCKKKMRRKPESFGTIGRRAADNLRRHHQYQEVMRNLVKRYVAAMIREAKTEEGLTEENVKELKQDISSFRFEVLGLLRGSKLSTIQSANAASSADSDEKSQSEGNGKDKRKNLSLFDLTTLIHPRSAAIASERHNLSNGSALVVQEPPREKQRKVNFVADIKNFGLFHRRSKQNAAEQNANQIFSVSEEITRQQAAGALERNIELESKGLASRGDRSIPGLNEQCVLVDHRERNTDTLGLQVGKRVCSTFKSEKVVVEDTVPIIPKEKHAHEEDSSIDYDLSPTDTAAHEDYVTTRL

[14] = HEK-293T viability loss after treatment – luminescence, T-cell screen hits, cytotoxicity control for TCR NF-kB inhibitor project, dose response (AID 489026); type: functional, cell-based;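 further: cells exposed to compound about 14 hours before the viability readout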
[15] = MIN6 cell viability loss – mouse insulinoma, cytotoxicity control, dose response (AID 2122); type: functional;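 further: confirmatory high-throughput counterscreen run to flag cytotoxic compounds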
[16] = non-specific 3'UTR reporter inhibition in Clone20-Shn3RL – cell-based, Renilla luciferase, cherry-picked, counter-screen for Shn3 inhibitor project, dose response (AID 624133); type: functional
[17] = reduction of Shn3 3'UTR-driven luciferase in osteoblasts – cell-based, Clone20 osteoblasts, firefly luciferase, cherry-picked, dose response (AID 624132); type: functional;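 further: firefly luciferase luminescence from reporter carrying the Shn3 3'UTR in osteoblasts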
[18] = decrease of insulin promoter-GFP reporter – imaging, high-content screening, mouse beta cells (AID 1628); type: functional; settings: MIN6
CAAX prenyl protease 2 = molecular target: T5, CAAX prenyl protease 2 (Homo sapiens, UniProt Q9Y256); assay: inhibition of Ras-converting CAAX protease Rce1 – biochemical, yeast membranes, quenched-peptide fluorescence, cherry-pick, dose response (AID 588849)
T5 sequence (Q9Y256 whole entry): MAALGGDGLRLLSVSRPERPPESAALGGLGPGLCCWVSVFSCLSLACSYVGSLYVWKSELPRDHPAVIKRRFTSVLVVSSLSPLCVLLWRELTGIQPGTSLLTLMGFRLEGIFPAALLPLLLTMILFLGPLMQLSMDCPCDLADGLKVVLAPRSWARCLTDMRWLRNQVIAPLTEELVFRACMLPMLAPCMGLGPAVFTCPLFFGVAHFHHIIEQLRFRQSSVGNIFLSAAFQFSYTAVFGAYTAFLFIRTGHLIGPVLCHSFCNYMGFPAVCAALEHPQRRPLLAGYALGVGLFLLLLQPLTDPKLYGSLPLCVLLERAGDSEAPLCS

[19] = molecular target: T1, Corticotropin-releasing factor receptor 2/Corticotropin-releasing factor-binding protein; assay: Dose Response confirmation of uHTS hits for small molecule antagonists of the CRF-binding protein and CRF-R2 receptor complex.; type: functional; settings: read-out: IC50_Mean
Cytochrome P450 3A4 = Cytochrome P450 3A4 (Homo sapiens, UniProt P08684);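 further: CYP3A4 tested as one member of a cytochrome P450 panel screen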
Chain of Cytochrome P450 3A4 (P08684 whole entry): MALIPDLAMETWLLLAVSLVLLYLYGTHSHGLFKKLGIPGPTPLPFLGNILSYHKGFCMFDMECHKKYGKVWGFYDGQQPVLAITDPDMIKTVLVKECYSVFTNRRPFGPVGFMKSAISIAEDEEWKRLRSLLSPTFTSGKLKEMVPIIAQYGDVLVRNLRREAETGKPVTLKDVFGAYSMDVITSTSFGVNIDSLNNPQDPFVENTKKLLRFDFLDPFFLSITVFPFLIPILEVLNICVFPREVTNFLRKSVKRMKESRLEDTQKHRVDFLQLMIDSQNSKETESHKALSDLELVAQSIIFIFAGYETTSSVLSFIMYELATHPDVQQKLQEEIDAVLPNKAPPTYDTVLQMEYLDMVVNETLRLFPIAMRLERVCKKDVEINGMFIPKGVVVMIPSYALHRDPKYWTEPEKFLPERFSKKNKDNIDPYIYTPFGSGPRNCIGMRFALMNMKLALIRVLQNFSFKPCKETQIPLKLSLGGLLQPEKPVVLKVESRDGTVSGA

Cytochrome P450 2C9 = Cytochrome P450 2C9 (Homo sapiens, UniProt P11712)
Chain of Cytochrome P450 2C9 (P11712 whole entry): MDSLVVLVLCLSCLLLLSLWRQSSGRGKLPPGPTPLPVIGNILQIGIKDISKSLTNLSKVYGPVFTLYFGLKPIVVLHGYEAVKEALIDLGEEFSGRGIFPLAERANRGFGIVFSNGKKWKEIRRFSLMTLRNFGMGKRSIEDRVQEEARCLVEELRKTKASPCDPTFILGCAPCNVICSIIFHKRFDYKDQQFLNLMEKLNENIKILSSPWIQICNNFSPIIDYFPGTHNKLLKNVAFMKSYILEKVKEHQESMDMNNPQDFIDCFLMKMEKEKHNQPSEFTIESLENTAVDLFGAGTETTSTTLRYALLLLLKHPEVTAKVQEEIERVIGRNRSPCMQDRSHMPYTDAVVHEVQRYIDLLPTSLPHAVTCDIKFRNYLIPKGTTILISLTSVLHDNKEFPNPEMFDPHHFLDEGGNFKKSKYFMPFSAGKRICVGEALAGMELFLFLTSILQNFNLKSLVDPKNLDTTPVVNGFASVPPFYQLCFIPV

Cytochrome P450 2C19 = Cytochrome P450 2C19 (Homo sapiens, UniProt P33261); assay: Cytochrome panel assay with activity outcomes. Panel member name: p450-cyp2c19 Compounds with AC50 equal or less than 10 uM are considered active; type: functional
Chain of Cytochrome P450 2C19 (P33261 whole entry): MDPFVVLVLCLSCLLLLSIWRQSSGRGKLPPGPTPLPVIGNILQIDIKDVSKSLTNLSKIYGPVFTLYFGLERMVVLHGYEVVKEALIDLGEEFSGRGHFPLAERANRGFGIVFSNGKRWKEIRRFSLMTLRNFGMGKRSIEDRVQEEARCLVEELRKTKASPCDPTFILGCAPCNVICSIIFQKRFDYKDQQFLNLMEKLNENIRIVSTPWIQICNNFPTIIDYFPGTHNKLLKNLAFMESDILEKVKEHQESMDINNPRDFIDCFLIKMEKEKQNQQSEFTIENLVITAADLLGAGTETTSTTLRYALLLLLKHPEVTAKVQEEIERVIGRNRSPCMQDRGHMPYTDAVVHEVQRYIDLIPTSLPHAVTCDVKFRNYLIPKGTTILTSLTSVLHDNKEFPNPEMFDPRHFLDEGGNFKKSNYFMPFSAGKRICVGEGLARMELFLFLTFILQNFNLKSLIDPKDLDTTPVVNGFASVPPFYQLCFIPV

Chain of Voltage-gated inwardly rectifying potassium channel KCNH2 (Q12809 whole entry): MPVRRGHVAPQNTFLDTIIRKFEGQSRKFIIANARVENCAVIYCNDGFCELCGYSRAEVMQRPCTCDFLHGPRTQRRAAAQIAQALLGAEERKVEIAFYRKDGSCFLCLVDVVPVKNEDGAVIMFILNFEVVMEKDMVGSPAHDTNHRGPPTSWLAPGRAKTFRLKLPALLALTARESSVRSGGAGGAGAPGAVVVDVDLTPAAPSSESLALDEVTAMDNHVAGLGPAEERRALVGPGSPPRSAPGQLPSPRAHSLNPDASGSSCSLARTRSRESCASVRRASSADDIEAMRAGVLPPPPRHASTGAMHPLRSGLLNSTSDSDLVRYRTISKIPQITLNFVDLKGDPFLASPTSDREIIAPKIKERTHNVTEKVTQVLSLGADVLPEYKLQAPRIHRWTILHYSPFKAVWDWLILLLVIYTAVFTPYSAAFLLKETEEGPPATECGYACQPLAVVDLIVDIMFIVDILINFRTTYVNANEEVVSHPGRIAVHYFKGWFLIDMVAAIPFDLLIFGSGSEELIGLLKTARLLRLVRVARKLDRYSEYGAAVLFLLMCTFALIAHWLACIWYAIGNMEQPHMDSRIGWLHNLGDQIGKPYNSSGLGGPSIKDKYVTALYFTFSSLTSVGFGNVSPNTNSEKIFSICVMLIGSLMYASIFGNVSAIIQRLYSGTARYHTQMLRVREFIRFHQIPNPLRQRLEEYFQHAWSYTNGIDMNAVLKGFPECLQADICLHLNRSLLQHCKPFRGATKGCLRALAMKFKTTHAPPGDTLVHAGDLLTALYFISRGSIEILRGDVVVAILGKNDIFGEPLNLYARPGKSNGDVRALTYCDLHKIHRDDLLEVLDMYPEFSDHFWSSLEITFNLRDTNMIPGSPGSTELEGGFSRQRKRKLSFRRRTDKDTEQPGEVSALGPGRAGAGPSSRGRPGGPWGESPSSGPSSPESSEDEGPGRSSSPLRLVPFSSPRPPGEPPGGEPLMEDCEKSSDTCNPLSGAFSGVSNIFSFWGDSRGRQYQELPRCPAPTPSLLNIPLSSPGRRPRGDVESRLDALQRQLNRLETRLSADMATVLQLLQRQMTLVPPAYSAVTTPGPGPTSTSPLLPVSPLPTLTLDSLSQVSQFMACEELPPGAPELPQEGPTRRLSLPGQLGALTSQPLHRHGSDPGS

CC(COc1ccc(/C=C/c2ccccc2)cc1)[N+](C)(C)C (centres undefined)
AC50 [1]: 22.4 µM (inconclusive)

Cc1ccc(C)c2nc3sc(C(=O)N4CCCc5ccccc54)c(N)c3cc12
EC50 [2]: 1.56 µM (active)
EC50 [3]: > 60 µM (not active)
EC50 (Beta-galactosidase): > 40 µM (inactive)
EC50 [4]: 8.83 µM (active)
IC50 [5]: > 40 µM (not active)

CCn1c(=O)c([N+](=O)[O-])c(Cl)c2ccccc21
IC50 [6]: 0.622 µM (active)
AC50 (INS1): 5.02 µM (active)
AC50 [7]: 7.21 µM (active)
AC50 [8]: 1.85 µM (active)
EC50 [2]: 1.89 µM (active)
EC50 [3]: 15 µM (active)
IC50 (Beta Lactamase): 28.6 µM (inactive)
EC50 (Beta-galactosidase): > 40 µM (inactive)
IC50 (CHO): 1.03 µM (active)
IC50 [5]: 2.22 µM (active)

CCc1c(C)sc(NC(=O)C2CC2c2ccccc2)c1C(N)=O (centres undefined)
IC50 (Vero [9]): 3.57 µM (active)
CC50 (Vero [10]): > 25 µM (active)

CC(=O)c1cccc(CN2CCCC(N3CCN(c4ccccc4F)CC3)C2)c1 (centres undefined)
AC50 [11]: 49.9 µM (active)

Cc1sc2ncnc(NC3CCN(Cc4ccccc4)CC3)c2c1C
AC50 (INS1): 2.88 µM (active)
AC50 [12]: 3.41 µM (active)
EC50 [2]: 1.78 µM (active)
EC50 [13]: 0.0467 µM (active)
IC50 [14]: > 80 µM (inactive)
EC50 [3]: > 60 µM (not active)
IC50 [15]: 0.316 µM (active)
AC50 [16]: 2.61 µM (active)
AC50 [17]: 1.02 µM (active)
IC50 [18]: 0.411 µM (active)

CC(C)C[C@H](N)CSSC[C@@H](N)CC(C)C
AC50 [1]: 35.5 µM (inconclusive)

OC(COc1ccc(CNCCc2ccc(C(F)(F)F)cc2)cc1)CN1CCCCC1 (centres undefined)
IC50 (Vero [9]): 8.76 µM (active)
EC50 [2]: 1.26 µM (active)
CC50 (Vero [10]): 16.4 µM (active)
EC50 [3]: 5.08 µM (active)

CS(=O)(=O)Nc1ccccc1C(=O)NCc1ccccc1Cl
AC50 (CAAX prenyl protease 2): 12.8 µM (active)
EC50 [4]: > 53 µM (inactive)
IC50 [19]: > 47.1 µM (inactive)

CC(=O)N1CCN(c2ccc(NC(=O)c3ccc(C)cc3)cc2)CC1
AC50 (Cytochrome P450 3A4): inconclusive
AC50 (Cytochrome P450 2C9): 39.8 µM (inconclusive)
AC50 (Cytochrome P450 2C19): 15.8 µM (inconclusive)

Cc1csc2nc(=O)c3ccccc3n12
AC50 (CAAX prenyl protease 2): 63 µM (active)

CC1CCN(C(=O)Cn2cnc3c2c(=O)n(C)c(=O)n3C)c2ccccc2S1 (centres undefined)
AC50 [11]: 87.7 µM (active)

COc1ccc(C(=O)CNc2cccc(F)c2)cc1
EC50 (Beta-galactosidase): > 40 µM (inactive)
IC50 [5]: 28 µM (not active)
